Source: patent US20140024653A1, “COMPOSITIONS AND METHODS FOR TREATING CANCER USING PI3K INHIBITOR AND MEK INHIBITOR” (priority 2011, published 2014)
Entries after “also recorded” stand apart in the source; their conditions may differ. Read-outs that look alike come from different tables or passages of the source.

What was measured:
[1] = tested on: panel of 81 cancer cell lines; assay: SRB cell growth assay, 72 h, cell line panel; format: cell-based, human; settings: for IC50: Homo sapiens
A673 = assay: SRB cell growth assay, 72 h; format: cell-based, human; settings: single agent
PANC1 = assay: SRB cell growth assay, 72 h; format: cell-based, human; settings: single agent
BT20 = assay: SRB cell growth assay, 72 h; format: cell-based, human; settings: single agent
DLD1 = assay: SRB cell growth assay, 72 h; format: cell-based, human; settings: single agent
DU145 = assay: SRB cell growth assay, 72 h; format: cell-based, human; settings: single agent
EJ28 = assay: SRB cell growth assay, 72 h; format: cell-based, human; settings: single agent
HCT116 = assay: SRB cell growth assay, 72 h; format: cell-based, human; settings: single agent
A549 = assay: SRB cell growth assay, 72 h; format: cell-based, human
MCF7 = assay: SRB cell growth assay, 72 h; format: cell-based, human
SKBR3 = assay: SRB cell growth assay, 72 h; format: cell-based, human; settings: single agent
MDAMB468 = assay: SRB cell growth assay, 72 h; format: cell-based, human; settings: single agent, up to 50 μM
Experimental: (§1) Cell growth and treatment were performed in 96-well microtitre plates CELLSTAR® (Greiner Bio-One, Germany). Cells harvested from exponential phase cultures by trypsinization were plated in 150 μl of media at optimal seeding densities. The optimal seeding densities for each cell line were determined to ensure exponential growth for the duration of the experiment. All cells growing without anticancer agents were sub-confluent by the end of the treatment as determined by visual inspection.
(§2) 150 μl of cells, after a 24-hour pre-growth period, were treated by mixing with 50 μl of the compound containing media (resulting in a final DMSO concentration of 0.1%). The cells were allowed to grow at 37° C. for 72 hours. In addition, all experiments contained a few plates with cells that were processed for measurement immediately after the 24 hours recovery period. These plates contained information about the cell number that existed before treatment, at time zero, and served to calculate the cytotoxicity.
(§3) After treatment, cells were precipitated by addition of 10% TCA. Prior to fixation, the media was aspirated as described. After an hour of incubation at 4° C., the plates were washed two times with 400 μl of deionized water. Cells were then stained with 100 μl of a 0.08% wt/v SRB. The plates were allowed to sit for at least 30 min. and washed six times with 1% acetic acid to remove unbound stain. The plates were left to dry at room temperature and bound SRB was solubilized with 100 μl of 10 mM Tris base. Measurement of optical density was performed at 560 nm on a Victor 2 plate reader (Perkin Elmer, Germany). The SRB values for A375 and H460 cell lines were near to saturation (2.5 OD units) due to the high protein content of these cells, but not cell confluence. The measurements for these cells were performed at 520 nm instead of 560 nm.
(§4) Using these measurements, cellular responses can be calculated for incomplete inhibition of cell growth (GI), complete inhibition of cell growth (T GI) and net loss of cells (LC) due to compound activity. […] This is the drug concentration causing a 50% reduction compared to the net protein increase in control cells during the drug incubation period. In other words, GI50 is IC50 corrected for time zero. Similar to IC90, calculated GI90 values are also reported for all compounds tested. TGI was calculated from Ti=Tz. […] It was calculated as 100×[(Ti−Tz)/Tz]=−50. However, due to 72 hours treatment, low cell seeding density was required and LC50 could rarely be achieved.

COLO678 = assay: SRB cell growth assay, 72 h; format: cell-based; settings: Homo sapiens, COLO-678, most sensitive cell lines
Experimental: as §1, §2, §3, §4

[2] = tested on: resting Peripheral Blood Mononuclear Cells, PBMC; assay: SRB cell growth assay, 72 h, non-proliferating cells; format: cell-based
Experimental: Cell lines were selected to represent 17 different indications with many different genetic variations and biochemical characteristics. In addition, the study included resting Peripheral Blood Mononuclear Cells, PBMC, as a model for non-proliferating cells.
Cell growth and treatment were performed in 96-well microtitre plates CELLSTAR® (Greiner Bio-One, Germany). Cells harvested from exponential phase cultures by trypsinization were plated in 150 μl of media at optimal seeding densities. The optimal seeding densities for each cell line were determined to ensure exponential growth for the duration of the experiment. All cells growing without anticancer agents were sub-confluent by the end of the treatment as determined by visual inspection. […]
After treatment, cells were precipitated by addition of 10% TCA. […] Measurement of optical density was performed at 560 nm on a Victor 2 plate reader (Perkin Elmer, Germany). […]
Using these measurements, cellular responses can be calculated for incomplete inhibition of cell growth (GI), complete inhibition of cell growth (T GI) and net loss of cells (LC) due to compound activity. […] Similar to IC90, calculated GI90 values are also reported for all compounds tested. TGI was calculated from Ti=Tz. […] It was calculated as 100×[(Ti−Tz)/Tz]=−50. […]

[3] = tested on: human colon carcinoma HCT 116; assay: HCT116 tumor growth in fluorescence molecular tomography study; format: in vivo, SCID mice; settings: (1) 10 mg/kg oral daily day 11 to day 17; NS
[4] = tested on: human primary colon tumors CR-LRB-013P; assay: antitumor activity against subcutaneous CR-LRB-013P xenografts; format: in vivo
Experimental: The human primary colon carcinoma CR-LRB-013P tumor model was established by implanting (SC) small tumor fragments and was maintained in SCID female mice using serial passages.
Treatments were administered on measurable tumors. […] Mice were checked daily, and adverse clinical reactions noted.
Animal body weights included the tumor weight.
The primary efficacy end points are ΔT/ΔC, percent median regression, partial and complete regressions (PR and CR). Statistical analyses were performed on SAS system release 8.2 for SUN4 via Everstat V5 software and SAS 9.2 software. A probability less than 5% (p<0.05) was considered as significant.

[5] = tested on: human colon carcinoma HCT 116
Experimental: Mice were over 18 g at start of treatment after an acclimatization time of at least 5 days. […] The mice were housed on a 12 hours light/dark cycle.
Human colon carcinoma HCT 116 cells were purchased at American Type Culture Collection [(ATCC), Rockville, Md., USA). The HCT 116 cells were cultured in Dulbecco's modified Eagle's medium (DMEM) (Invitrogen).
The animals required to begin a given experiment were pooled and implanted monolaterally on day 0. Treatments were administered on measurable tumors. The solid tumors were allowed to grow to the desired volume range (animals with tumors not in the desired range were excluded). The mice were then pooled and unselectively distributed to the various treatment and control groups. […] The dosages are expressed in mg/kg, based on the body weight at start of therapy. Mice were checked daily, and adverse clinical reactions noted. Each group of mice was weighed as a whole daily until the weight nadir was reached. Then, groups were weighed once to thrice weekly until the end of the experiment. Tumors were measured with a caliper 2 to 3 times weekly until final sacrifice for sampling time, tumor reached 2000 mm^3 or until the animal died (whichever comes first). Solid tumor volumes were estimated from two-dimensional tumor measurements and calculated according to the following equation:
Changes in tumor volume for each treated (T) and control (C) group were calculated for each tumor by subtracting the tumor volume on the day of first treatment (staging day) from the tumor volume on the specified observation day. The median ΔT is calculated for the treated group, and the median ΔC is calculated for the control group. Then the ratio ΔT/ΔC is calculated and expressed as a percentage. The dose is considered as therapeutically active when ΔT/ΔC is lower than 40% and very active when ΔT/ΔC is lower than 10%.
The percent of tumor regression is defined as the % of tumor volume decrease in the treated group at a specified observation day compared to its volume on the first day of treatment. At a specific time point and for each animal, % regression is calculated. The median % regression is then calculated for the group using the following equation:
Partial regression: Regressions are defined as partial if the tumor volume decreases to 50% of the tumor volume at the start of treatment.
Complete regression: The CR is achieved when tumor volume=0 mm^3 (CR is considered when tumor volume cannot be recorded).

[6] = (1) 20 mg/kg PO daily days 33-50
[7] = study 1, (1) 5 mg/kg PO daily days 11-18
[8] = study 2, (1) 10 mg/kg PO daily days 11-18 (day 17: 20 mg/kg)
[9] = study 2, (1) 20 mg/kg PO daily days 11-18
[10] = study 3, (1) 10 mg/kg PO daily days 11-20
[11] = study 3, (1) 20 mg/kg PO daily days 11-20
[12] = study 4, (1) 10 mg/kg PO daily days 11-20
[13] = study 4, (1) 20 mg/kg PO daily days 11-20

In the case of `O=C(NC[C@H](O)CO)c1ccncc1Nc1ccc(I)cc1F` [Compound (1), N—((S)-2,3-dihydroxypropyl)-3-(2-fluoro-4-iodo-phenylamino)isonicotinamide], the “cell lines sensitive below 100 nM” value ([1]; 82 cell lines) is reported as 27 of 82, the IC50 ([1]; median of cell lines tested, read-out: median sensitivity) is reported as 490 nM and the IC50 ([1]; sensitive cell lines of the panel, read-out: Efficacy in sensitive cell lines) is reported as 4 to 5 nM. The “difference between the most and least sensitive cell lines” value ([1]; panel) was 10.000 fold, the “z-score MSC6369” value (A673) was 3.00 and the “activity (cell growth inhibition)” value (A673; up to 50 μM) was “minimal activity; also recorded: non-sensitive”. The “z-score MSC6369” value (PANC1) was 3.00, the “activity (cell growth inhibition)” value (PANC1; up to 50 μM) was “minimal activity” and the “z-score MSC6369” value (BT20) was 0.02. The “z-score MSC6369” value (DLD1) was 0.19, the “z-score MSC6369” value (DU145) was 0.73 and the “z-score MSC6369” value (EJ28) was −0.68. The “z-score MSC6369” value (HCT116) was −0.32, the GI50 (A549; Homo sapiens) was 300 nM and the “z-score MSC6369” value (A549; single agent) was −0.11. For the same compound, the GI50 (MCF7; Homo sapiens) was 150 nM, the “z-score MSC6369” value (MCF7; single agent) was −0.33 and the sensitivity (SKBR3) was “non-sensitive”. The “z-score MSC6369” value (SKBR3) was 0.69, the “activity (cell growth inhibition)” value (MDAMB468) was “minimal activity” and the IC50 (COLO678) was 4.8 to 8 nM. For the same compound, the “activity in resting (arrested) PBMC” value [2] was “no activity”, the “ΔT/ΔC at the end of study” value [3] was 40% and the “Average body weight change in % per mouse at nadir” value [4, 6] was −4.5 (50) %. The Drug death [4, 6] was 0/7, the “Median ΔT/ΔC in % day 50” value [4, 6] was 30% and the “Regressions Complete” value [4, 6] was 0/7. The “Regressions Partial” value [4, 6] was 0/7, the tolerability ([4]; as single agents or used in combination) was “tolerated, inducing some BWL but not reaching toxicity” and the “Average body weight change in % per mouse at nadir” value [5, 7] was −3.4 (14) %. For the same compound, the Drug death [5, 7] was 0/7, the “Regressions Complete” value [5, 7] was 0/7 and the “Regressions Partial” value [5, 7] was 0/7. The “Median ΔT/ΔC in % day 18” value ([5]; study 1, (1) 5 mg/kg PO daily days 11-18, 5 mg/kg) was 70%, the tolerability ([5]; study 1, as single agents or used in combination) was “well-tolerated, inducing minimal BWL” and the “Average body weight change in % per mouse at nadir” value [5, 8] was −2.2 (18) %. For the same compound, the Drug death [5, 8] was 0/7, the “Median ΔT/ΔC in % day 18” value [5, 8] was 20% and the “Regressions Complete” value [5, 8] was 0/7. For the same compound, the “Regressions Partial” value [5, 8] was 0/7, the “Average body weight change in % per mouse at nadir” value [5, 9] was −1.1 (15) % and the Drug death [5, 9] was 0/7. For the same compound, the “Median ΔT/ΔC in % day 18” value [5, 9] was 22%, the “Regressions Complete” value [5, 9] was 0/7 and the “Regressions Partial” value [5, 9] was 0/7. The tolerability ([5]; study 2, as single agents) was “well-tolerated, inducing minimal BWL”, the “Average body weight change in % per mouse at nadir” value [5, 10] was −4.9 (20) % and the Drug death [5, 10] was 0/10. The “Regressions Complete” value [5, 10] was 0/10, the “Regressions Partial” value [5, 10] was 0/10 and the “Median ΔT/ΔC in % day 20” value ([5]; study 3, (1) 10 mg/kg PO daily days 11-20, 10 mg/kg) was 43%. The “Average body weight change in % per mouse at nadir” value [5, 11] was −3.6 (19) %, the Drug death [5, 11] was 0/10 and the “Median ΔT/ΔC in % day 20” value [5, 11] was 34%. The “Regressions Complete” value [5, 11] was 0/10, the “Regressions Partial” value [5, 11] was 0/10 and the tolerability ([5]; study 3, as single agents) was “well-tolerated, inducing minimal BWL”. For the same compound, the “Average body weight change in % per mouse at nadir” value [5, 12] was −2.3 (13) %, the Drug death [5, 12] was 0/10 and the “Regressions Complete” value [5, 12] was 0/10. The “Regressions Partial” value [5, 12] was 0/10, the “Median ΔT/ΔC in % day 20” value ([5]; study 4, (1) 10 mg/kg PO daily days 11-20, 10 mg/kg) was 53% and the “Average body weight change in % per mouse at nadir” value [5, 13] was −4.1 (18) %. The Drug death [5, 13] was 0/10, the “Regressions Complete” value [5, 13] was 0/10 and the “Regressions Partial” value [5, 13] was 0/10. For the same compound, the “Median ΔT/ΔC in % day 20” value ([5]; study 4, (1) 20 mg/kg PO daily days 11-20, 20 mg/kg) was 41% and the tolerability ([5]; study 4, as single agents) was “well-tolerated, inducing minimal BWL”.
